# Tests used:
# Assay in all cases: relative viability (nuclei count vs DMSO), 5 days (fraction); higher = more cells survive
# [1] = compound: O[C@@H](COc1cccc2ncccc12)CN1CCN([C@@H]2c3ccccc3[C@@H]3[C@H](c4ccccc42)C3(F)F)CC1 [Zosuquidar] + Cc1cc(Nc2cc(N3CCN(C)CC3)nc(Sc3ccc(NC(=O)C4CC4)cc3)n2)n[nH]1 [Tozasertib] (partner 0.1 µM)
# Method in brief: (§1)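 Relative viability was taken as the ratio of nuclei in treated wells to nuclei in vehicle wells. Lung cancer cell lines in 1536-well plates received compounds by pin tool one day after seeding, either one drug alone or a fixed anchor-drug dose plus five library-drug doses (not always all listed) in √10 steps. Nuclei were counted on 4× images after 5 days of treatment, and values are medians of duplicate plates.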
# [2] = compound: C1=CC(=CC=C1NC(=S)NNC2=C(C=C(C=C2[N+](=O)[O-])C(F)(F)F)[N+](=O)[O-])F [Kobe2602] + COc1cccc2cc(-c3nc([C@H]4CC[C@H](C(=O)O)CC4)n4ncnc(N)c34)[nH]c12 [OSI-027] (partner 0.5 µM)
# Method in brief: as §1
# [3] = compound: O[C@@H](COc1cccc2ncccc12)CN1CCN([C@@H]2c3ccccc3[C@@H]3[C@H](c4ccccc42)C3(F)F)CC1 [Zosuquidar] + C[C@]1(O)C[C@@H](c2nc(-c3ccc4ccc(-c5ccccc5)nc4c3)c3c(N)nccn32)C1 [Linsitinib] (partner 1 µM)
# Method in brief: as §1
# [4] = compound: C1=CC(=CC=C1NC(=S)NNC2=C(C=C(C=C2[N+](=O)[O-])C(F)(F)F)[N+](=O)[O-])F [Kobe2602] + CC(=O)Nc1cccc(-n2c(=O)n(C3CC3)c(=O)c3c(Nc4ccc(I)cc4F)n(C)c(=O)c(C)c32)c1 [Trametinib] (partner 0.02 µM)
# Method in brief: as §1
Cell Line,relative viability ([1]; first compound 0.01 µM),relative viability ([1]; first compound 0.03162 µM),relative viability ([1]; first compound 0.1 µM),relative viability ([1]; first compound 0.3162 µM),relative viability ([1]; first compound 1 µM),relative viability ([2]; first compound 0.2 µM),relative viability ([2]; first compound 0.6325 µM),relative viability ([2]; first compound 2 µM),relative viability ([2]; first compound 6.325 µM),relative viability ([2]; first compound 20 µM),relative viability ([3]; first compound 0.01 µM),relative viability ([3]; first compound 0.03162 µM),relative viability ([3]; first compound 0.1 µM),relative viability ([3]; first compound 0.3162 µM),relative viability ([3]; first compound 1 µM),relative viability ([4]; first compound 0.2 µM),relative viability ([4]; first compound 0.6325 µM),relative viability ([4]; first compound 2 µM),relative viability ([4]; first compound 6.325 µM),relative viability ([4]; first compound 20 µM)
NCI-H2347,0.593,0.575,0.555,0.691,0.543,0.425,0.495,0.403,0.278,0.571,0.968,1,0.834,1.01,1.06,0.291,0.251,0.336,0.304,0.326
NCI-H2405,0.774,0.762,0.724,0.747,0.74,0.609,0.616,0.619,0.727,0.719,0.984,0.878,0.784,0.969,0.983,0.644,0.712,0.621,0.66,0.669
NCI-H3122,0.396,0.391,,0.466,0.379,0.902,0.903,0.957,0.853,1.12,1.01,0.939,0.938,1.07,0.959,0.257,0.242,0.211,0.214,0.238
PC-3 [JPC-3],0.844,0.835,0.879,0.824,0.897,0.715,0.736,0.74,0.784,0.759,0.945,0.956,0.817,0.929,0.981,0.69,0.699,0.7,0.683,0.668
PC-14,0.551,0.602,0.629,0.519,0.57,0.836,0.887,0.87,0.792,0.339,0.918,0.97,0.904,0.94,1.02,0.697,0.693,0.659,0.823,0.361
RERF-LC-KJ,0.501,0.552,0.505,0.519,0.428,0.615,0.485,0.555,0.481,0.257,0.858,0.903,0.876,0.932,0.906,0.839,0.836,0.864,0.802,0.525
SK-LU-1,0.292,0.359,0.417,0.353,0.332,0.329,0.365,0.359,0.327,0.371,1.1,1.3,1.39,1.22,0.874,0.519,0.506,0.469,0.439,0.58
SK-MES-1,0.797,1.01,0.97,0.942,0.857,0.591,0.637,0.488,0.642,0.226,1.01,1.08,0.991,0.979,1.1,0.579,0.534,0.554,0.589,0.496
SW 1573,0.171,0.147,0.14,0.182,0.157,0.722,0.535,0.531,0.62,0.303,0.713,0.728,0.793,0.925,0.859,0.67,0.677,0.46,0.458,0.155
